Results taken from PMC5324103 (Scientific Reports, 2017).

How the values were obtained:
[1] = target: T1, LXRα (Homo sapiens, UniProt Q13133); assay: LXRα transactivation, luciferase reporter assay in HepG2 cells; assay type: cell-based; settings: for EC50: dose-response 1-50 μM, mean ± SE, read-out: LXRα Affinity (EC50); for Emax at 10 µM: compound 10 μM vs GW3965 10 μM (=100%), NA = no activity at 10 μM, read-out: LXRα Efficacy (% vs GW3965)
T1 construct: expressed in transfected cells; host or cells: HepG2
T1 sequence (Q13133 209-447 limits assumed): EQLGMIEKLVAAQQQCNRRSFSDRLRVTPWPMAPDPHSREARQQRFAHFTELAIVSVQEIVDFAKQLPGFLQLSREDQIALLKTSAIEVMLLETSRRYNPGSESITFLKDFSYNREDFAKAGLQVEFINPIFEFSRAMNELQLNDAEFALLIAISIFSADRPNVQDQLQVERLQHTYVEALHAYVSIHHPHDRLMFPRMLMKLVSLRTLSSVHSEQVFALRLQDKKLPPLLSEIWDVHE
Protocol: Derivatives 4–30 were tested for their activity in a luciferase reporter assay with HepG2 and HEK-293T cells transfected with LXRα,β and GPBAR1, respectively. Table 1 reports the efficacy of tested compounds compared to those of reference compounds, GW3965 for LXRα/β and TLCA for GPBAR1.
Each compound was tested at the concentration of 10 μM and transactivation activity of GW3965 on LXRs and TLCA on CRE (i.e. TGR5/GPBAR1) was considered equal to 100%.
To evaluate LXRα mediated transactivation, HepG2 cells were transfected with 20 ng of the reporter vector p(UAS)5XTKLuc, 100 ng of a vector containing the ligand binding domain of LXRα cloned upstream of the GAL4-DNA binding domain (i.e. pSG5-LXRαLBD-GAL4DBD) and […] pGL4.70 (Promega), a vector encoding the human Renilla gene. To evaluate GPBAR1 mediated transactivation, HEK-293T cells were transfected with 200 ng of human pGL4.29 (Promega), a reporter vector containing a cAMP response element (CRE) that drives the transcription of the luciferase reporter gene luc2P, with 100 ng of pCMVSPORT6-human GPBAR1, and with 100 ng of pGL4.70 Renilla. To evaluate FXR mediated transactivation, HepG2 cells were transfected with 100 ng of human pSG5-FXR, 100 ng of human pSG5-RXR, 200 ng of the reporter vector p(hsp27)-TK-LUC containing the FXR response element IR1 cloned from the promoter of heat shock protein 27 (hsp27) and with 100 ng of pGL4.70 Renilla. At 24 h post-transfection, cells were stimulated 18 h with 10 μM GW3965, TLCA, or CDCA and compounds 4–30 (10 μM). Luciferase activities were assayed and normalized with Renilla activities. Dose-response curves were performed in HepG2 and HEK-293T cells transfected as described above and then treated with increasing concentrations of compounds 4, 5, 8, 9, 12–15, 17, 20, 21, 24, 25, 27, 29, 30 (1, 5, 10, 25 and 50 μM). At 18 h post stimulations, cellular lysates were assayed for luciferase and Renilla activities using the Dual-Luciferase Reporter assay system (E1980, Promega). Luminescence was measured using Glomax 20/20 luminometer (Promega). Luciferase activities (RLU) were normalized with Renilla activities (RRU).

[2] = target: T2, GPBAR1 (Homo sapiens, UniProt Q8TDU6); assay: GPBAR1 transactivation, CRE-luciferase reporter assay in HEK-293T cells; assay type: cell-based; settings: dose-response 1-50 μM, mean ± SE of 3 experiments in duplicate, read-out: GPBAR1 Affinity (EC50)
T2 construct: expressed in transfected cells; host or cells: HEK-293T
T2 sequence (Q8TDU6 1-330): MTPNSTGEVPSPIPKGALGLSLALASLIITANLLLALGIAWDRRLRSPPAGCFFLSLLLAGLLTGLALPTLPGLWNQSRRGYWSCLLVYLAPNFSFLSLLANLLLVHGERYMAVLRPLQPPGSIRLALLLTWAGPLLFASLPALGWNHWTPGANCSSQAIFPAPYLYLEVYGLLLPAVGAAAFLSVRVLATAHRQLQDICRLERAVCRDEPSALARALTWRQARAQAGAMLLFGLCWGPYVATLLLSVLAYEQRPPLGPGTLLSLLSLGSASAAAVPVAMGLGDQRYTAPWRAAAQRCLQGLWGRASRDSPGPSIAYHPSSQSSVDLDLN

[3] = system: C57BL6 mice; assay: Two-week oral administration to intact C57BL6 mice (serum chemistry, liver histology, liver and ileum gene expression); assay type: in vivo; settings: 30 mg/Kg daily by oral gavage, two weeks
Protocol: C57BL6 mice were administered with 14 (30 mg/Kg daily by oral gavage) for two weeks.
C57BL6 mice were originally donated by Dr. Galya Vassileva (Schering-Plough Research Institute, Kenilworth). The colonies were maintained in the animal facility of University of Perugia. […] Mice were housed under controlled temperatures (22 °C) and photoperiods (12:12-h light/dark cycle), allowed unrestricted access to standard mouse chow and tap water and allowed to acclimate to these conditions for at least 5 days before inclusion in an experiment. The study was conducted in agreement with the Italian law and the protocol was approved by ethical committee of University of Perugia and by National committee of Ministry of Health (permission n. 42/2014-B). The Veterinarian monitored the health and body conditions of the animals daily in the animal facility. The study protocol caused minor suffering; however, animals that lost more than 25% of the initial body weight were euthanized. At the day of sacrifice mice were deeply anesthetized with a mixture of tiletamine […] and zolazepam […]/xylazine at a dose of 50/5 mg/Kg. Blood, liver and terminal ileum were collected for further analysis. Aspartate aminotransferase (AST), total cholesterol and triglycerides were measured by routine biochemical clinical chemistry. For histological examination, portions of liver lobes were fixed in 10% formalin, embedded in paraffin, sectioned (5 μm thin) and stained with Hematoxylin/Eosin (H&E) for morphometric analysis.

[4] = system: ABCA1 mRNA expression; assay: RT-PCR of LXRα target gene ABCA1 in HepG2 cells; settings: Homo sapiens, HepG2, 18 h, read-out: EC50 for induction of ABCA1 gene expression
Protocol: (§1) HepG2 and Glutag cells were plated at 1 × 10^6 cells/well in a 6 well plate.
(§2) Total RNA was isolated from HepG2 or Glutag cells and from animal tissues (liver and terminal ileum) using the TRIzol reagent according to the manufacturer’s specifications (Invitrogen). One microgram of purified RNA was treated with DNase-I and reverse transcribed with Superscript II (Invitrogen). For Real Time PCR, 25 ng template was dissolved in 25 μL containing 200 nmol/L of each primer and 12.5 μL of 2 × SYBR FAST Universal ready mix (Invitrogen). […] The relative mRNA expression was calculated and expressed as 2^(−ΔΔCt).

[5] = system: SREBP1c mRNA expression; assay: RT-PCR of LXRα target gene SREBP1c in HepG2 cells; settings: Homo sapiens, HepG2, 18 h, read-out: EC50 for induction of SREBP1c gene expression
Protocol: as §1, §2

[6] = system: pro-glucagon mRNA expression; assay: RT-PCR of GPBAR1 target gene pro-glucagon in Glutag cells; settings: Mus musculus, 18 h, read-out: EC50 for induction of pro-glucagon mRNA
Protocol: as §1, §2

[7] = system: GPBAR1 (also known as TGR5); settings: in vitro studies; cited from earlier work

Compound	EC50 [1] [µM]	EC50 [2] [µM]	other results
CC(C)=CCCC(C)C1CCC2C3CC(O)C4CC(O)CCC4(C)C3CCC12C (stereo not shown) [Compound 4]	6.99 ± 0.31		
CC(C)CCCC(C)C1CCC2C3CC(O)C4CC(O)CCC4(C)C3CCC12C (stereo not shown) [Compound 5]	8.2 ± 0.16		Emax at 10 µM [1]: 73%
C=CCCC(C)C1CCC2C3CC(O)C4CC(O)CCC4(C)C3CCC12C (stereo not shown) [Compound 8]	2.7 ± 0.65		
CCCCC(C)C1CCC2C3CC(O)C4CC(O)CCC4(C)C3CCC12C (stereo not shown) [Compound 9]	5.1 ± 0.43		
CC(CCCCc1ccccc1)C1CCC2C3CC(O)C4CC(O)CCC4(C)C3CCC12C (stereo not shown) [Compound 12]	12.4 ± 0.41		Emax at 10 µM [1]: 63%
CC(C)=CCC(C)C1CCC2C3CC(O)C4CC(O)CCC4(C)C3CCC12C (stereo not shown) [Compound 13]	22.3 ± 3.05	4.2 ± 0.79	
CC(C)CCC(C)C1CCC2C3CC(O)C4CC(O)CCC4(C)C3CCC12C (stereo not shown) [Compound 14]	3.2 ± 0.03	4.9 ± 0.2	Emax at 10 µM [1]: 109%; expression of GPBAR1 target genes GLP1 and Fgf21 in terminal ileum ([3]; Real-Time PCR): increases; liver expression of steatosis marker genes FAS, SREBP1c, CD36 and PPARs ([3]; Real-Time PCR on liver tissue): does not induce; liver histology (H&E staining), fat deposition ([3]; vs control): no differences; plasmatic level of AST ([3]; vs control): no effects; plasmatic level of cholesterol ([3]; vs control): no effects; plasmatic level of triglycerides ([3]; vs control): no effects; EC50 [4]: 8.3 µM; EC50 [5]: 5.8 µM; EC50 [6]: 6.5 µM
C=CCC(C)C1CCC2C3CC(O)C4CC(O)CCC4(C)C3CCC12C (stereo not shown) [Compound 15]		3.7 ± 0.38	
C=CC(C)C1CCC2C3CC(O)C4CC(O)CCC4(C)C3CCC12C (stereo not shown) [Compound 17]		2.54 ± 0.015	
CCCC[C@@H](C)[C@H]1CCC2C3CC[C@@H]4C[C@H](O)CC[C@]4(C)C3CC[C@@]21C (stereo partly shown) [Compound 20]		6.8 ± 0.08	
CC(C)=CCC[C@@H](C)[C@H]1CCC2C3CC[C@@H]4C[C@H](O)CC[C@]4(C)C3CC[C@@]21C (stereo partly shown) [Compound 21]		5.9 ± 0.055	
CC[C@@H](C)[C@H]1CCC2C3CC[C@@H]4C[C@H](O)CC[C@]4(C)C3CC[C@@]21C (stereo partly shown) [Compound 24]		0.91 ± 0.092	
CC(C)=CCC[C@@H](C)[C@H]1CCC2C3CC[C@H]4C[C@@H](O)CC[C@]4(C)C3CC[C@@]21C (stereo partly shown) [Compound 25]		7.6 ± 0.71	
C=CCC[C@@H](C)[C@H]1CCC2C3CC[C@H]4C[C@@H](O)CC[C@]4(C)C3CC[C@@]21C (stereo partly shown) [Compound 27]		1 ± 0.062	
C=C[C@@H](C)[C@H]1CCC2C3CC[C@H]4C[C@@H](O)CC[C@]4(C)C3CC[C@@]21C (stereo partly shown) [Compound 29]		4.9 ± 0.06	
CC[C@@H](C)[C@H]1CCC2C3CC[C@H]4C[C@@H](O)CC[C@]4(C)C3CC[C@@]21C (stereo partly shown) [Compound 30]		1.98 ± 0.145	
C[C@H](CCC(=O)O)[C@H]1CC[C@H]2[C@@H]3C[C@H](O)[C@@H]4C[C@H](O)CC[C@]4(C)[C@H]3CC[C@]12C [HDCA, hyodeoxycholic acid]			EC50 [7]: 31.6 µM
